Measurements reported in PubChem BioAssay (NCI).
Where “and” joins values, the source holds several entries; their conditions need not be identical. Identical values can stand only once.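 These data come from cells grown in 96-well plates and exposed to compound for 48 hours at five concentrations. Here, GI50 denotes the concentration required for 50% inhibition of growth. At the TGI there is no net growth.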

Assays:
Test in all cases: NCI tumour cell line growth inhibition, 48 h
HCT-15 colon = system: HCT-15 colon
MDA-MB-231 breast = system: MDA-MB-231 breast
UO-31 renal = system: UO-31 renal
T-47D breast = system: T-47D breast
SF-268 CNS = system: SF-268 CNS
HL-60(TB) leukemia = system: HL-60(TB) leukemia
HS 578T breast = system: HS 578T breast
PC-3 prostate = system: PC-3 prostate

Compound | GI50 (HCT-15 colon) | TGI (HCT-15 colon) | GI50 (MDA-MB-231 breast) | TGI (MDA-MB-231 breast) | GI50 (UO-31 renal) | TGI (UO-31 renal) | GI50 (T-47D breast) | TGI (T-47D breast) | GI50 (SF-268 CNS) | TGI (SF-268 CNS) | GI50 (HL-60(TB) leukemia) | TGI (HL-60(TB) leukemia) | GI50 (HS 578T breast) | TGI (HS 578T breast) | GI50 (PC-3 prostate) | TGI (PC-3 prostate)
O=C(Nc1ccc2[nH]c(C(=O)N3CC(CCl)c4c3cc([N+](=O)[O-])c3ccccc43)cc2c1)c1cc2ccccc2o1 (stereo not drawn) | > 1100 µM | > 1100 µM | > 1100 µM | > 1100 µM | > 1100 µM | > 1100 µM | > 1100 µM | > 1100 µM | > 1100 µM | > 1100 µM | 33.2 µM | 380 µM | > 1100 µM | > 1100 µM |  | 
C[n+]1c2ccccc2c(Nc2ccc(NS(=O)(=O)CCCCN=C(N)N)cc2)c2ccc(N)cc21 | 50.9 µM | > 100 µM | 43.6 µM | > 100 µM | 6.5 µM | > 100 µM | 0.222 µM | 13.5 µM | 2.16 µM | > 85.5 µM | 1.64 µM | > 56.1 µM | 2.79 µM | 52.3 µM | 8.47 µM | > 100 µM
COc1ccc2nc(NCN3C(=O)c4ccccc4C3=O)sc2c1 |  | > 100 µM |  | > 100 µM |  | > 100 µM |  | > 100 µM |  | > 100 µM |  | > 100 µM |  | > 100 µM |  | > 100 µM
CCCCOC(=O)c1ccc(NC(=O)CCl)cc1 | 1.43 µM | 3.19 µM | 1.63 µM | 3.26 µM | 1.39 µM | 2.84 µM | 1.38 µM | 4.01 µM | 1.78 µM | 4.05 µM | 2.28 µM | 4.86 µM | 9.16 µM | 57.3 µM | 3.24 µM | 12.4 µM
COc1ccc(SC2c3ccc(C)cc3Oc3nc(N)c(C#N)c(N)c32)cc1 (stereo not drawn) | 1.72 µM | 3.3 µM | 1.81 µM | 3.28 µM | 1.39 µM | 2.68 µM | 1.9 µM | 4.63 µM | 1.62 µM | 3.04 µM | 1.86 µM | 3.99 µM | 2.27 µM | 5.54 µM | 1.6 µM | 3.11 µM
c1ccc(Nn2c(CCCCCCCCc3nnc(COc4ccccc4)n3Nc3ccccc3)nnc2COc2ccccc2)cc1 | 9.88 µM and 5.62 µM | > 300 µM | 12.4 µM | > 300 µM | 5.27 µM and 8.49 µM | > 300 µM | 12.3 µM and 7.31 µM | > 300 µM | 23.5 µM and 70.9 µM | > 300 µM | 2.55 µM and 9.66 µM | > 300 µM | 35.5 µM | > 300 µM | 8.32 µM and 23.9 µM | > 300 µM
CN[C@@H]1C[C@H]2O[C@@](C)([C@@H]1OC)n1c3ccccc3c3c4c(c5c6ccccc6n2c5c31)C(=O)N[C@H]4O | 0.157 µM | > 3.31 µM | 0.0227 µM | 0.509 µM | 0.0116 µM | 0.0547 µM | 0.00739 µM | 0.163 µM | 0.024 µM | 2.31 µM |  | 0.52 µM | 0.0191 µM | 0.143 µM | 0.0149 µM | 1.14 µM
COc1cc2c(cc1OC)-c1ccc3cc4c(cc3c1N(CCN(C)C)C2)OCO4 | 4.09 µM | 17.6 µM | 1.63 µM | 5.31 µM | 1.77 µM | 5.77 µM | 0.21 µM | 3.48 µM | 0.214 µM | 2.41 µM | 0.25 µM | 0.681 µM | 1.68 µM | 13.7 µM | 0.411 µM | 6.06 µM
CCCOC(=O)N[C@H]1CCc2cc(OC)c(OC)c(OC)c2-c2ccc(SC)c(=O)cc21 | < 0.01 µM | 12 µM | < 0.01 µM | 25.5 µM |  | 42 µM |  |  | < 0.01 µM | > 54.1 µM | < 0.01 µM | < 0.0129 µM | < 0.01 µM | > 100 µM | < 0.01 µM | > 100 µM
CN1CCN(C(=O)c2c(NC(=O)NS(=O)(=O)c3ccccc3)sc3c2CCCCC3)CC1 | 26.3 µM | 74.6 µM | 27.5 µM | 79.6 µM | > 100 µM | > 100 µM |  |  | 41.2 µM | > 100 µM | 48.2 µM | > 100 µM | 40.3 µM | > 100 µM | 30.6 µM | > 100 µM
COc1ccc2c(c1)c1nc3cc(C)c(C)cc3nc1n2CCN(C)C | 0.417 µM | 1.77 µM | 1.17 µM | 2.76 µM | 0.541 µM | 2.1 µM | 1.2 µM | 4.25 µM | 1.42 µM | 3.57 µM | 0.992 µM | 3.36 µM | 1.77 µM | 6.23 µM | 1.04 µM | 2.48 µM
Cc1cc([N+](=O)[O-])ccc1NS(=O)(=O)c1cc(Cl)ccc1Cl | 2.92 µM | 13.1 µM | 3.36 µM | 16.2 µM | 2.97 µM | 17 µM | 1.92 µM | 8.01 µM | 4.49 µM | > 100 µM | 3.13 µM | 12.8 µM | 4.23 µM | 60.5 µM | 2.73 µM | 21.1 µM
COc1ccc(-c2nn(-c3cccc(Cl)c3)cc2-c2c(C#N)c(=O)n3[nH]c(-c4ccc(C)cc4)nc3c2C#N)cc1 | 9.95 µM | > 50 µM | 1.16 µM | 5.25 µM | 3.39 µM | 11.2 µM | 5.15 µM | 12.1 µM | 1.62 µM | 7.76 µM | 8.33 µM | 29.6 µM | 1.23 µM | 15 µM | 1.7 µM | 9.26 µM
CCn1c2ccc(C(=O)CCCN(C)C)cc2c2cc(C(=O)CCCN(C)C)ccc21 |  | 8.92 µM |  | 3.37 µM |  | 12.8 µM |  | 33.5 µM |  | 6.62 µM |  | 3.78 µM |  | 6.35 µM |  | 5.88 µM
O=C(/C=C/c1cccc([N+](=O)[O-])c1)c1ccc(O)c(CN2CCN(c3cc4c(cc3F)c(=O)c(C(=O)O)cn4C3CC3)CC2)c1 |  |  | 1.89 µM | 4.02 µM | 1.29 µM | 2.67 µM | 1.85 µM | 4.99 µM | 2.15 µM | 5.58 µM | 2.24 µM | 6.58 µM | 2.43 µM | 7.11 µM | 1.85 µM | 5.37 µM
O=C1c2cc(-c3ccccc3)ccc2-c2c1c1ccc([N+](=O)[O-])cc1c(=O)n2CCCBr | > 50 µM | > 50 µM | > 38.9 µM | > 50 µM | > 50 µM | > 50 µM | > 50 µM | > 50 µM | > 35.4 µM | > 50 µM |  |  | 10.5 µM | > 40.7 µM | > 50 µM | > 50 µM
